Reference: publication PMC6264310, “Synthesis and Pharmacological Activity of Diterpenylnaphthoquinone Derivatives” (Molecules, 2011)

Experiments:
MRC-5 fibroblasts = assay: Basal cytotoxicity, neutral red uptake assay, MRC-5; format: cell-based; conditions: Homo sapiens, MRC5, MRC-5, confluent cultures, 24 h, read-out: IC50 ± SEM, Fibroblasts
Method: (§1) 3.6. Cytotoxicity Assay
(§2) The human cell lines MRC-5 normal lung fibroblasts (ATCC CCL-171), AGS gastric adenocarcinoma cells (ATCC CRL-1739), and Hep G2 hepatocellular carcinoma cells (ATCC HB-8065) were obtained from the American Type Culture Collection (ATCC, Manassas, VA, USA). The cells were grown as monolayers in the following media: MRC-5 and Hep G2 in minimum essential Eagle’s medium (MEM), with Earle’s salts, 2.0 mM L-glutamine (Sigma Chemical Co.) and 2.2 g/L sodium bicarbonate (Sigma Chemical Co.), supplemented with 10% heat-inactivated fetal bovine serum (FBS), 100 IU/mL penicillin, and 100 µg/mL streptomycin in a humidified incubator with 5% CO2 in air at 37 °C. Cell passage was maintained between 10 and 16 for MRC-5 and between 79 and 82 for Hep G2 cells. The medium was changed every 2 days. Culture media, antibiotics, and FBS were obtained from Invitrogen Corp. Human gastric adenocarcinoma cells AGS (ATCC CRL-1739) were grown as monolayers in Ham F-12 medium containing 1.0 mM L-glutamine and 1.5 g/L sodium bicarbonate, supplemented with 10% heat-inactivated FBS, 100 IU/mL penicillin, and 100 µg/mL streptomycin in a humidified incubator with 5% CO2 in air at 37 °C. Cell passage was maintained between 42 and 48. The medium was changed every 2 days.
(§3) Confluent cultures of the different cell lines were treated with medium containing the compounds at concentrations ranging from 1 up to 1,000 µM. The antisecretory drug lansoprazole was used as reference compound. The substances were first dissolved in DMSO and then in the corresponding culture medium supplemented with 2% FBS. The final concentration of DMSO in the test medium and controls was 1%. The cells were exposed for 24 h to test medium with or without the compound (control). Each concentration was tested in quadruplicate together with the control and repeated three times in separate experiments. At the end of the incubation the neutral red uptake assay was performed.

AGS cells = assay: Basal cytotoxicity, neutral red uptake assay, AGS; format: cell-based; conditions: Homo sapiens, confluent cultures, 24 h, read-out: IC50 ± SEM, AGS
Method: as §1, §2, §3

Hep G2 cells = assay: Basal cytotoxicity, neutral red uptake assay, Hep G2; format: cell-based; conditions: Homo sapiens, HepG2, Hep G2, confluent cultures, 24 h, read-out: IC50 ± SEM, Hep G2
Method: as §1, §2, §3

[1] = test system: HCl-EtOH-induced gastric lesions; assay: HCl-EtOH-induced gastric lesion model in mice; format: in vivo
Method: 3.5. HCl-EtOH-Induced Ulcer Model in Mice
The gastroprotective activity of the compounds was assessed in the EtOH-HCl-induced gastric lesion model. Male Swiss albino mice weighing 30 ± 3 g were used. The animals were fed on certified Champion diet with free access to water under standard conditions of 12 h dark-light period, 50% relative humidity, and 22 °C room temperature. The mice were randomly distributed into groups of 7–14 animals each and fasted for 24 h with free access to water before the oral administration of test samples by gavage. The purity of the tested compounds was higher than 95% by NMR analysis. To keep the animal numbers to a minimum, dose-response studies were performed with lapachol at 5, 10 and 50 mg/kg to set the conditions for single-dose comparison of gastroprotective effect. The tested compounds, lansoprazole (20 mg/kg) or the vehicle (12% Tween 80, 10 mL/kg) were administered orally by gavage. After 50 min, all groups were orally treated with 0.2 mL of a solution containing 60% EtOH-0.3 M HCl for gastric lesion induction. Animals were sacrificed by cervical dislocation 1 h after the administration of EtOH-HCl, and the stomachs excised and inflated by injection of 5% formalin (1 mL). The ulcerated stomachs were fixed in 5% formalin for 30 min and opened along the greater curvature. The length (mm) of each lesion was measured, and the lesion index expressed as the sum of the length of all lesions. Based on previous studies on the parent diterpenes, comparison of the new compounds 1–12 was carried out at a single oral dose of 5 mg/kg. The protocols were approved by the Universidad de Talca Institutional Animal Care and Use Committee, which follows the recommendations of the Canadian Council on Animal Care. Tween 80 and lansoprazole (>98% purity by HPLC) were purchased from Sigma-Aldrich.
Results were expressed as the mean ± SEM. In all experiments, statistical differences between several treatments and their respective control were determined by one-way ANOVA with Student-Newman-Keuls post-hoc test. The level of significance was set at P < 0.05.

[2] = Basal cytotoxicity, cell lines not separated in the text; format: cell-based; conditions: human; stated in text without cell line
Method: as §1
The human cell lines MRC-5 normal lung fibroblasts (ATCC CCL-171), AGS gastric adenocarcinoma cells (ATCC CRL-1739), and Hep G2 hepatocellular carcinoma cells (ATCC HB-8065) were obtained from the American Type Culture Collection (ATCC, Manassas, VA, USA). The cells were grown as monolayers in the following media: MRC-5 and Hep G2 in minimum essential Eagle’s medium (MEM), with Earle’s salts, 2.0 mM L-glutamine (Sigma Chemical Co.) and 2.2 g/L sodium bicarbonate (Sigma Chemical Co.), supplemented with 10% heat-inactivated fetal bovine serum (FBS), 100 IU/mL penicillin, and 100 µg/mL streptomycin in a humidified incubator with 5% CO2 in air at 37 °C. Cell passage was maintained between 10 and 16 for MRC-5 and between 79 and 82 for Hep G2 cells. The medium was changed every 2 days. Culture media, antibiotics, and FBS were obtained from Invitrogen Corp. Human gastric adenocarcinoma cells AGS (ATCC CRL-1739) were grown as monolayers in Ham F-12 medium containing 1.0 mM L-glutamine and 1.5 g/L sodium bicarbonate, supplemented with 10% heat-inactivated FBS, 100 IU/mL penicillin, and 100 µg/mL streptomycin in a humidified incubator with 5% CO2 in air at 37 °C. Cell passage was maintained between 42 and 48. The medium was changed every 2 days. […]

[3] = Mus musculus, 1 h, mice, single oral dose of 5 mg/kg, read-out: Protection (%)
[4] = mice, single oral dose of 5 mg/kg
[5] = Mus musculus, 1 h, mice, single oral dose of 5 mg/kg, read-out: Protected stomachs (number of stomachs completely protected from any visible bleeding) (converted)

Row | Compound | IC50 (MRC-5 fibroblasts) | IC50 (AGS cells) | IC50 (Hep G2 cells) | inhibition in vivo at 5 mg/kg [1, 3] | Lesion index (mm) Mean ± SEM [1, 4] | responders at 5 mg/kg [1, 5] | IC50 at 24 h [2] | responders at 20 mg/kg ([1]; Mus musculus, 1 h, mice, oral, 20 mg/kg, read-out: Protected stomachs (number of stomachs completely protected from any visible bleeding) (converted)) | inhibition in vivo at 20 mg/kg ([1]; Mus musculus, 1 h, mice, oral, 20 mg/kg, read-out: Protection (%)) | Lesion index (mm) Mean ± SEM ([1]; mice, oral, 20 mg/kg) | Gastroprotective effect compared with the vehicle control (Tween 80) ([1]; mice, 5, 10 and 50 mg/kg, data not shown)
1 | C=C1CCC2[C@](C)(CCC[C@]2(C)C(=O)O)[C@H]1CC[C@@H](C)CC(=O)OC1=C(CC=C(C)C)C(=O)c2ccccc2C1=O (stereo partly shown) [Compound 1, Lapachoyl junicedrate] | 210 ± 13 µM | 170 ± 9 µM | 57.4 ± 4.4 µM | 44% | 15.3 ± 5.0 mm | – | – | – | – | – | –
2 | C=C1CCC2[C@](C)(CCC[C@]2(C)C(=O)OC)[C@H]1CC[C@@H](C)CC(=O)OC1=C(CC=C(C)C)C(=O)c2ccccc2C1=O (stereo partly shown) [Compound 2, Lapachoyl junicedrate methyl ester] | 741 ± 40 µM | 361 ± 19 µM | 208 ± 11 µM | 65% | 8.7 ± 3.9 mm | 44.4% | – | – | – | – | –
3 | C=C1CCC2[C@](C)(CCC[C@]2(C)C(=O)O)[C@H]1CC[C@@H](C)CC(=O)OC1=C(CCC(C)C)C(=O)c2ccccc2C1=O (stereo partly shown) [Compound 3, Dihydroprenyl lapachoyl junicedrate] | 156 ± 9 µM | 89 ± 5 µM | > 1000 µM | 59% | 17.9 ± 4.6 mm | 0% | – | – | – | – | –
4 | C=C1CCC2[C@](C)(CCC[C@]2(C)C(=O)OC)[C@H]1CC[C@@H](C)CC(=O)OC1=C(CCC(C)C)C(=O)c2ccccc2C1=O (stereo partly shown) [Compound 4, Dihydroprenyl lapachoyl junicedrate methyl ester] | > 1000 µM | 382 ± 26 µM | > 1000 µM | 55% | 19.3 ± 5.0 mm | 0% | – | – | – | – | –
5 | C=C1CCC2[C@](C)(CCC[C@]2(C)C(=O)O)[C@H]1CC[C@@H](C)CC(=O)OC1=C(CCC(C)C)C(=O)C2=C(CCCC2)C1=O (stereo partly shown) [Compound 5, Dihydroprenyl-5,6,7,8-tetrahydrolapachoyl junicedrate] | 69 ± 3 µM | 40 ± 6 µM | 27 ± 1 µM | 18% | 20.4 ± 3.6 mm | 0% | – | – | – | – | –
6 | C=C1CCC2[C@](C)(CCC[C@]2(C)C(=O)OC)[C@H]1CC[C@@H](C)CC(=O)OC1=C(CCC(C)C)C(=O)C2=C(CCCC2)C1=O (stereo partly shown) [Compound 6, Dihydroprenyl-5,6,7,8-tetrahydrolapachoyl junicedrate methyl ester] | > 1000 µM | > 1000 µM | > 1000 µM | 74% | 6.5 ± 2.7 mm | 37.5% | > 1000 µM | – | – | – | –
7 | CC(C)=CCC1=C(OC(=O)C[C@H](C)CCC2=C(C)CCC3[C@@](C)(C(=O)O)CCC[C@]23C)C(=O)c2ccccc2C1=O (stereo partly shown) [Compound 7, Lapachoyl Δ8(9) junicedrate] | 190 ± 8 µM | 179 ± 9 µM | 96 ± 9 µM | 54% | 11.5 ± 4.4 mm | 12.5% | – | – | – | – | –
8 | COC(=O)[C@@]1(C)CCC[C@]2(C)C(CC[C@@H](C)CC(=O)OC3=C(CC=C(C)C)C(=O)c4ccccc4C3=O)=C(C)CCC12 (stereo partly shown) [Compound 8, Lapachoyl Δ8(9) junicedrate methyl ester] | > 1000 µM | 721 ± 35 µM | 379 ± 21 µM | 84% | 3.9 ± 1.9 mm | 55.6% | – | – | – | – | –
9 | CC1=C(CC[C@@H](C)CC(=O)OC2=C(CCC(C)C)C(=O)c3ccccc3C2=O)[C@@]2(C)CCC[C@](C)(C(=O)O)C2CC1 (stereo partly shown) [Compound 9, Dihydroprenyl lapachoyl Δ8(9) junicedrate] | 341 ± 17 µM | 294 ± 15 µM | > 1000 µM | 64% | 15.7 ± 4.5 mm | 0% | – | – | – | – | –
10 | COC(=O)[C@@]1(C)CCC[C@]2(C)C(CC[C@@H](C)CC(=O)OC3=C(CCC(C)C)C(=O)c4ccccc4C3=O)=C(C)CCC12 (stereo partly shown) [Compound 10, Dihydroprenyl lapachoyl Δ8(9) junicedrate methyl ester] | > 1000 µM | 162 ± 10 µM | > 1000 µM | 76% | 10.2 ± 3.5 mm | 33.3% | – | – | – | – | –
11 | CC(C)=CCC1=C(OC(=O)C[C@H](C)CCC2[C@@H](C)CCC3[C@]2(C)CCC[C@]3(C)C(=O)O)C(=O)c2ccccc2C1=O (stereo partly drawn) [Compound 11, Lapachoyl 17β-dihydrojunicedrate] | 336 ± 15 µM | 114 ± 7 µM | 54.5 ± 5 µM | 6% | 23.5 ± 3.6 mm | 0% | – | – | – | – | –
12 | COC(=O)[C@@]1(C)CCC[C@]2(C)C(CC[C@@H](C)CC(=O)OC3=C(CC=C(C)C)C(=O)c4ccccc4C3=O)[C@@H](C)CCC21 (stereo partly drawn) [Compound 12, Lapachoyl 17β-dihydrojunicedrate methyl ester] | 926 ± 35 µM | 323 ± 16 µM | 290 ± 9 µM | – | 27.4 ± 6.8 mm | 0% | – | – | – | – | –
13 | COc1cc([C@@H]2c3cc4c(cc3[C@@H](O[C@@H]3O[C@@H]5CO[C@@H](C)O[C@H]5[C@H](O)[C@H]3O)[C@H]3COC(=O)[C@H]23)OCO4)cc(OC)c1O [Etoposide, reference compound] | – | 0.58 ± 0.02 µM | – | – | – | – | – | – | – | – | –
14 | C=C1CCC2[C@](C)(CCC[C@]2(C)C(=O)O)[C@H]1CC[C@@H](C)CC(=O)O (stereo partly shown) [Junicedric acid (I), junicedric acid, reference compound] | 181 ± 9 µM | 304 ± 18 µM | > 1000 µM | – | – | – | – | – | – | – | –
15 | Cc1c(OCC(F)(F)F)ccnc1C[S+]([O-])c1nc2ccccc2[nH]1 (stereo not shown) [Lansoprazole, lansoprazole, reference compound] | 306 ± 11 µM | 162 ± 6 µM | 221 ± 9 µM | – | – | – | – | 66.7% | 73% | 9.4 ± 1.2 mm | –
16 | CC(C)=CCC1=C(O)C(=O)c2ccccc2C1=O [Lapachol (IV), 2-hydroxy-3-(3-methyl-2-butenyl)-[1,4]-naphthoquinone, reference compound] | > 1000 µM | 382 ± 15 µM | 55 ± 3 µM | – | – | – | – | – | – | – | did not present a statistically significant effect
17 | CC1=C(CC[C@@H](C)CC(=O)O)[C@@]2(C)CCC[C@](C)(C(=O)O)C2CC1 (stereo partly shown) [Δ8(9) junicedric acid (II), Δ8(9) Junicedric acid, reference compound] | 214 ± 32 µM | 343 ± 22 µM | > 1000 µM | 79% | 5.3 ± 2.4 mm | 44.4% | – | – | – | – | –
